Measured values as given in article PMC6270976, “Pharmacokinetic Study in Mice of Galphimine-A, an Anxiolytic Compound from Galphimia glauca” (Molecules, 2014).
Like-named read-outs stand apart in the source and are kept apart here.

Tests used:
[1] = Stability of G–A in mouse plasma under handling conditions; type: in vitro ADME; settings: for Observed Concentration ± S.D.: n = 6
Experimental: (§1) The stability of G–A in mice plasma and brain was assessed by analyzing replicates (n = 6) of QC samples at concentrations of 0.8, 4.0 and 10 μg/mL for mice plasma and brain. The investigation covered expected conditions during all of the sample storage and process periods, which included the stability data from freeze/thaw, bench-top, autosampler and long–term stability test. For all stability studies, freshly prepared and stability testing QC samples were evaluated by using freshly prepared standard curves for the measurement. The concentrations obtained from all stability studies were compared with the freshly prepared QC samples, and the percentage concentration deviation was calculated. The analytes were considered stable in mouse plasma and brain when the concentration difference between the freshly prepared samples and the stability samples was less than 15%.

[2] = Stability of G–A in mouse brain tissue homogenate under handling conditions; type: in vitro ADME; settings: for Observed Concentration ± S.D.: n = 6
Experimental: as §1

[3] = Plasma pharmacokinetics of G–A after a single oral dose in ICR mice (HPLC, PKSolver); type: in vivo; design: t1/2ka (absorption half time): unit not given here; settings: for AUC(0-inf) / Cmax / Tmax / AUC(0-t) / CL/F / MRT / Vd/F / k el: ICR, po, 200 mg/kg; for AUC(0-t): read-out: AUC0-1440 min (converted); for CL/F: read-out: CL/F (apparent clearance); for MRT: read-out: MRT (mean residence time) (converted); for Vd/F: read-out: V/F (apparent volume of distribution)
Experimental: Eighty-eight mice were randomly divided into 11 groups with eight individuals each. All animals were orally administered with 200 mg/kg of G–A dissolved in 5% β-cyclodextrin solution. Under ether-induced anesthesia, blood samples were obtained from the retroorbital sinus with heparinized cannula at different times (0, 5, 10, 15, 30, 60, 120, 240, 480, 720, and 1,440 min) after G–A administration. The volume of the blood samples was of 700 to 1000 microliters, which were collected in heparinized centrifuge microtubes, after the blood was centrifuged for 5 min at 1,720 × g.
Plasma samples were frozen at −70 °C, and lyophilized after. The obtained dry product was used to extract and measure the amount of G–A. After obtaining blood samples, all animals were perfused with isotonic saline solution (ISS) via cardiac puncture; the femoral vein was used to eliminate the perfusion liquid, until it appeared clear. Subsequently, the brain was removed. The brains were weighed fresh and frozen at −70 °C and then lyophilized. Once dry, the brains were weighed again to determine the volume of water contained in each brain. Dry tissue was ground in a mortar, and G–A was later extracted.
Dry pulverized samples (plasma and brain) were extracted with methanol (HPLC grade, Merck). The extracts were filtered with a 0.45 μm, 13 mm Teflon membrane (Millex®-LCR), and 20 μL of filtrate were injected into the HPLC equipment. Measurements were performed in a Waters 2695 HPLC, with diode array detector (Waters 2996) and the Empower Pro 1.0 software. A Chromolith Performance® RP-18e 100 × 4.6 mm (Merck KGaA Darmstadt, Germany) was used. The mobile phase consisted of a mixture of acetonitrile:water (55:45, 1 mL/min). G–A concentration was obtained by comparison with a pre-built calibration curve at λ = 220 nm.
To evaluate the suitability of the assay for pharmacokinetic studies, 200 mg/kg of G–A was orally administered to mice. Eight animals were used in each group different times (0, 5, 10, 15, 30, 60, 120, 240, 480, 720, and 1440 min). Pharmacokinetic calculations were performed using the observed data. All data were subsequently processed using PKSolver add-in program for Microsoft Excel written in Visual Basic for Applications. […]
The pharmacokinetic model selection either one or two-comparment, were used both the Akaike information criterion (AIC) and Schwarz criterion (SC). Using the criteria, one may select the model with which to reach a lower value of AIC or SC, which means that the chosen model is more parsimonious (less parameters required) and best fits the data (low error prediction).

[4] = plasma, 3 Freeze/thaw cycles (−70 °C), nominal 0.80 μg/mL
[5] = plasma, 3 Freeze/thaw cycles (−70 °C), nominal 4.00 μg/mL
[6] = plasma, 3 Freeze/thaw cycles (−70 °C), nominal 10.0 μg/mL
[7] = plasma, Autosampler stability (4 °C; 8 h), nominal 0.80 μg/mL
[8] = plasma, Autosampler stability (4 °C; 8 h), nominal 4.00 μg/mL
[9] = plasma, Long–term stability (−70 °C; 1 month), nominal 0.80 μg/mL
[10] = plasma, Long–term stability (−70 °C; 1 month), nominal 4.00 μg/mL
[11] = plasma, Long–term stability (−70 °C; 1 month), nominal 10.0 μg/mL
[12] = brain tissue, 3 Freeze/thaw cycles (−70 °C), nominal 0.80 μg/mL
[13] = brain tissue, 3 Freeze/thaw cycles (−70 °C), nominal 4.00 μg/mL
[14] = brain tissue, 3 Freeze/thaw cycles (−70 °C), nominal 10.0 μg/mL
[15] = brain tissue, Autosampler stability (4 °C; 8 h), nominal 0.80 μg/mL
[16] = brain tissue, Autosampler stability (4 °C; 8 h), nominal 4.00 μg/mL
[17] = brain tissue, Autosampler stability (4 °C; 8 h), nominal 10.0 μg/mL
[18] = brain tissue, Long–term stability (−70 °C; 1 month), nominal 0.80 μg/mL
[19] = brain tissue, Long–term stability (−70 °C; 1 month), nominal 4.00 μg/mL
[20] = brain tissue, Long–term stability (−70 °C; 1 month), nominal 10.0 μg/mL
[21] = mouse, plasma, one-compartment model, oral 200 mg/kg
[22] = mouse, plasma, plasma, one-compartment model, oral 200 mg/kg
[23] = mouse, plasma, plasma, two-compartment model, oral 200 mg/kg
[24] = mouse, plasma, two-compartment model, oral 200 mg/kg
[25] = plasma, one-compartment model, oral 200 mg/kg
[26] = plasma, two-compartment model, oral 200 mg/kg

COC(=O)[C@@]12CC[C@]3(C)C([C@H](O)[C@H](O)[C@@]4([C@@H](C)O)COC(=O)C=C[C@H]43)[C@@]1(C)CC[C@@]1(C)CC=C(C)C[C@]12O (stereo partly drawn) [G–A, galphimine-A]
Time analyzable in the autosampler tray with acceptable precision and accuracy ([1]; plasma samples, 4 °C): over 8 h
Long-term storage stability (time stable) ([1]; plasma samples, −70 °C): over 1 month
Accuracy Bias [1, 4]: −1.00%
Observed Concentration ± S.D. [1, 4]: 0.79 ± 0.08 µg/mL
Accuracy Bias [1, 5]: 0.25%
Observed Concentration ± S.D. [1, 5]: 4.01 ± 0.14 µg/mL
Accuracy Bias [1, 6]: −0.70%
Observed Concentration ± S.D. [1, 6]: 9.93 ± 0.67 µg/mL
Accuracy Bias [1, 7]: 3.75%
Observed Concentration ± S.D. [1, 7]: 0.83 ± 0.05 µg/mL
Accuracy Bias [1, 8]: −1.75%
Observed Concentration ± S.D. [1, 8]: 3.93 ± 0.43 µg/mL
Observed Concentration ± S.D. ([1]; plasma, Autosampler stability (4 °C; 8 h), nominal 10.0 μg/mL): 10.10 ± 0.85 µg/mL
Accuracy Bias [1, 9]: −3.00%
Observed Concentration ± S.D. [1, 9]: 0.77 ± 0.06 µg/mL
Accuracy Bias [1, 10]: 6.50%
Observed Concentration ± S.D. [1, 10]: 4.26 ± 0.31 µg/mL
Accuracy Bias [1, 11]: −5.70%
Observed Concentration ± S.D. [1, 11]: 9.43 ± 0.83 µg/mL
Freeze/thaw stability ([1]; plasma, three cycles, stored at −70 °C and thawed to room temperature): stable
Time analyzable in the autosampler tray with acceptable precision and accuracy ([2]; brain tissue samples, 4 °C): over 8 h
Long-term storage stability (time stable) ([2]; brain tissue samples, −70 °C): over 1 month
Accuracy Bias [2, 12]: 3.75%
Observed Concentration ± S.D. [2, 12]: 0.83 ± 0.08 µg/mL
Accuracy Bias [2, 13]: 9.00%
Observed Concentration ± S.D. [2, 13]: 4.36 ± 0.34 µg/mL
Accuracy Bias [2, 14]: 3.60%
Observed Concentration ± S.D. [2, 14]: 10.36 ± 0.52 µg/mL
Accuracy Bias [2, 15]: 8.75%
Observed Concentration ± S.D. [2, 15]: 0.87 ± 0.11 µg/mL
Accuracy Bias [2, 16]: −10.0%
Observed Concentration ± S.D. [2, 16]: 3.60 ± 0.33 µg/mL
Accuracy Bias [2, 17]: −1.70%
Observed Concentration ± S.D. [2, 17]: 9.83 ± 0.43 µg/mL
Accuracy Bias [2, 18]: −10.00%
Observed Concentration ± S.D. [2, 18]: 0.72 ± 0.10 µg/mL
Accuracy Bias [2, 19]: −6.75%
Observed Concentration ± S.D. [2, 19]: 3.73 ± 0.41 µg/mL
Accuracy Bias [2, 20]: 4.30%
Observed Concentration ± S.D. [2, 20]: 10.43 ± 0.98 µg/mL
Freeze/thaw stability ([2]; brain tissue, three cycles, stored at −70 °C and thawed to room temperature): stable
G–A Concentration Plasma ([3]; 5 min after single oral 200 mg/kg, mean ± S.E.M., n = 8, 200 mg/kg): 2.47 ± 0.43 µg/mL
AUC(0-inf) [3, 21]: 36200 ng·h/mL
Cmax [3, 21]: 3330 ng/mL
Tmax [3, 21]: 0.436 h
AUC(0-t) [3, 22]: 32500 ng·h/mL
CL/F [3, 22]: 92 mL/min/kg
MRT [3, 22]: 10.5 h
Vd/F [3, 22]: 57.6 L/kg
k el ([3]; mouse, plasma, plasma, one-compartment model, oral 200 mg/kg, read-out: k10 (apparent first-order elimination rate constant) (converted)): 2.67e-05 s⁻¹
k el ([3]; mouse, plasma, plasma, one-compartment model, oral 200 mg/kg, read-out: k10 (elimination rate constant) (converted)): 2.67e-05 s⁻¹
AUC(0-t) [3, 23]: 30400 ng·h/mL
CL/F [3, 23]: 98 mL/min/kg
MRT [3, 23]: 10.3 h
Vd/F [3, 23]: 55.5 L/kg
k el ([3]; mouse, plasma, plasma, two-compartment model, oral 200 mg/kg, read-out: k10 (apparent first-order elimination rate constant) (converted)): 2.83e-05 s⁻¹
k el ([3]; mouse, plasma, plasma, two-compartment model, oral 200 mg/kg, read-out: k10 (elimination rate constant) (converted)): 2.83e-05 s⁻¹
AUC(0-inf) [3, 24]: 33800 ng·h/mL
Cmax [3, 24]: 3420 ng/mL
Tmax [3, 24]: 0.456 h
concentration at 5 min ([3]; mouse, plasma, 5 min after single oral 200 mg/kg, mean ± S.E.M., n = 8): 2470 ng/mL
concentration at 10 min ([3]; mouse, plasma, 10 min after single oral 200 mg/kg, mean ± S.E.M., n = 8): 2570 ± 520 ng/mL
concentration at 15 min ([3]; mouse, plasma, 15 min after single oral 200 mg/kg, mean ± S.E.M., n = 8): 2790 ± 790 ng/mL
concentration at 30 min ([3]; mouse, plasma, 30 min after single oral 200 mg/kg, mean ± S.E.M., n = 8): 3700 ± 700 ng/mL
concentration at 60 min ([3]; mouse, plasma, 60 min after single oral 200 mg/kg, mean ± S.E.M., n = 8): 3440 ± 350 ng/mL
concentration at 120 min ([3]; mouse, plasma, 120 min after single oral 200 mg/kg, mean ± S.E.M., n = 8): 2950 ± 430 ng/mL
concentration at 240 min ([3]; mouse, plasma, 240 min after single oral 200 mg/kg, mean ± S.E.M., n = 8): 2330 ± 420 ng/mL
concentration at 480 min ([3]; mouse, plasma, 480 min after single oral 200 mg/kg, mean ± S.E.M., n = 8): 1440 ± 370 ng/mL
concentration at 720 min ([3]; mouse, plasma, 720 min after single oral 200 mg/kg, mean ± S.E.M., n = 8): 960 ± 210 ng/mL
concentration at 1440 min ([3]; mouse, plasma, 1440 min after single oral 200 mg/kg, mean ± S.E.M., n = 8): 310 ± 20 ng/mL
Plasma area under the G–A concentration time curve ([3]; one-compartment model, oral 200 mg/kg): 2,170 μg·min·mL^−1
Time to detection in plasma after oral administration ([3]; oral 200 mg/kg): ≤ 5 min
A (G–A plasma concentration in central compartment) [3, 25]: 3.50 µg/mL
ka (apparent first-order absorption rate constant) [3, 25]: 0.182 min⁻¹
t1/2ka (absorption half time) [3, 25]: 3.79
A (G–A plasma concentration in central compartment) [3, 26]: 1.83 µg/mL
B (G–A plasma concentration in peripheral compartment) [3, 26]: 1.82 µg/mL
k12 (transfer rate constant central to peripheral compartment) [3, 26]: 0.00017 min⁻¹
k21 (transfer rate constant peripheral to central compartment) [3, 26]: 0.00195 min⁻¹
ka (apparent first-order absorption rate constant) [3, 26]: 0.164 min⁻¹
t1/2ka (absorption half time) [3, 26]: 4.22
α [3, 26]: 0.0025 min⁻¹
β [3, 26]: 0.0014 min⁻¹
Plasma area under the G–A concentration time curve ([3]; two-compartment model, oral 200 mg/kg): 2,030 μg·min·mL^−1
